Measurements reported in the supplement of paper PMC12463676, “Small-molecule dissolution of stress granules by redox modulation benefits ALS models” (Nature Chemical Biology, 2025).

What was measured:
[1] = compound: NC(=O)CCCCC1CCSS1 [lipoamide]; assay: thermal stability z-score vs DMSO; higher = more thermally stabilized by treatment; details: HeLa, lipoamide concentration 100 µM
Experimental: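 Cellular thermal proteome profiling in HeLa cells. Cells were treated with 100 µM lipoamide for 1 h, with or without 1 mM arsenate for a further 1 h, then heated to ten temperatures (37-66.3 °C), and soluble protein was quantified by TMT mass spectrometry relative to 0.1% DMSO controls. The thermal stability score (sum of log2 fold changes minus the abundance score) was transformed to a z-score; mean of n = 3 experiments.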

[2] = compound: O=[As]([O-])(O)O.[K+] [potassium arsenate]; assay: as above; details: HeLa; arsenate concentration 1 mM
Experimental: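 Cellular thermal proteome profiling in HeLa cells treated with 1 mM arsenate for 1 h (DMSO pretreatment), heated to ten temperatures (37-66.3 °C). Soluble protein was quantified by TMT mass spectrometry relative to DMSO controls; the thermal stability score was transformed to a z-score; mean of n = 3 experiments.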

[3] = arsenate co-treatment: 1 mM arsenate 1 h
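Further: each temperature applied for 3 min, abundance score taken as mean log2 fold change at the two lowest temperatures, z-score obtained by mean subtraction and division by SD.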

UniProt Q8N4V1, sequence (Q8N4V1 whole entry): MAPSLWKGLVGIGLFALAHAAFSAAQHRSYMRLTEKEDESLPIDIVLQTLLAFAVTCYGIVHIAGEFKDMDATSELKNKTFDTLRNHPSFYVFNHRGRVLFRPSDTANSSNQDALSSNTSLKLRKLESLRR
UniProt Q92947, sequence (Q92947 whole entry): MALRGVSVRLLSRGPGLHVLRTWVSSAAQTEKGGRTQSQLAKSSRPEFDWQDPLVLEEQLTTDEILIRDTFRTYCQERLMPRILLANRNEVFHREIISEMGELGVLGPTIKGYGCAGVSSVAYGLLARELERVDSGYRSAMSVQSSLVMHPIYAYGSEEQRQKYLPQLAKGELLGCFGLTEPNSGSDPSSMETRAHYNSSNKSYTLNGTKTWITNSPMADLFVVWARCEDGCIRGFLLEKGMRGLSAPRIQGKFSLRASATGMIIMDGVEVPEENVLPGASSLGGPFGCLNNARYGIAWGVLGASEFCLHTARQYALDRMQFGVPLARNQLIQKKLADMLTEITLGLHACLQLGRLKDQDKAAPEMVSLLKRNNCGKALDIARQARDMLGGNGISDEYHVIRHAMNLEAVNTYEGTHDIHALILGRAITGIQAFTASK
UniProt P04150, sequence (P04150 whole entry): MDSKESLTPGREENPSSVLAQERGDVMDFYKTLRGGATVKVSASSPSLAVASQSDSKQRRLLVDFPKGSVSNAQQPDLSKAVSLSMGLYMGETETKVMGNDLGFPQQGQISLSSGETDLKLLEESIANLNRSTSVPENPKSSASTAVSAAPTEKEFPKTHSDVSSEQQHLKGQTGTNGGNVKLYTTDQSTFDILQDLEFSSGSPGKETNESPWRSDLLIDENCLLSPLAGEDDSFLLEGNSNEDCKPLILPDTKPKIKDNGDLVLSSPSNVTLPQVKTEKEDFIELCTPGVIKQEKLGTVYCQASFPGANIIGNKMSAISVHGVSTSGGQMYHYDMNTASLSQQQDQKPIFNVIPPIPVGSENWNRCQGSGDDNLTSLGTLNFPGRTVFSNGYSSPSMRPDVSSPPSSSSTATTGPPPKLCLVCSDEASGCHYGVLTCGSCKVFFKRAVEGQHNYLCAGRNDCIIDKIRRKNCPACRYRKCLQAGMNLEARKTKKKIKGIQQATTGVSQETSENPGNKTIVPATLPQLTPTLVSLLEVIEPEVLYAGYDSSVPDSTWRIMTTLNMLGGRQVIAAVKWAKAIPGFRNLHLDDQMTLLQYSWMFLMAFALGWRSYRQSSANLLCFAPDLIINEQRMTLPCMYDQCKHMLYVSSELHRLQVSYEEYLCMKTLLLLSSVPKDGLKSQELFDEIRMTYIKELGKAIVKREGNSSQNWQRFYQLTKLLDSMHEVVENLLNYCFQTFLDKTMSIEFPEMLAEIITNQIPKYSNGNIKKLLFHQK
UniProt Q9GZR2, sequence (Q9GZR2 whole entry): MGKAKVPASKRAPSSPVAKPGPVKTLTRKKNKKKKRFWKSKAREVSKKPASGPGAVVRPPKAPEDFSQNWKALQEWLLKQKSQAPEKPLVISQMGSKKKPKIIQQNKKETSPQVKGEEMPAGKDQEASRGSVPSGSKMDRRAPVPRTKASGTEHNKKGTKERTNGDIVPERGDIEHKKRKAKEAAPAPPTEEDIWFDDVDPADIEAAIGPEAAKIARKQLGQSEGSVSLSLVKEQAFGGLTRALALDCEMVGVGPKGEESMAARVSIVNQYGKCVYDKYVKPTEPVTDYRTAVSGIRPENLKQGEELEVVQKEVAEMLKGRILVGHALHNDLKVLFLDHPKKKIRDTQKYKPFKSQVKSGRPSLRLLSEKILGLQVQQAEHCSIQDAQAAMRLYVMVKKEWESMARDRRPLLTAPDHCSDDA
UniProt O60337, sequence (O60337 whole entry): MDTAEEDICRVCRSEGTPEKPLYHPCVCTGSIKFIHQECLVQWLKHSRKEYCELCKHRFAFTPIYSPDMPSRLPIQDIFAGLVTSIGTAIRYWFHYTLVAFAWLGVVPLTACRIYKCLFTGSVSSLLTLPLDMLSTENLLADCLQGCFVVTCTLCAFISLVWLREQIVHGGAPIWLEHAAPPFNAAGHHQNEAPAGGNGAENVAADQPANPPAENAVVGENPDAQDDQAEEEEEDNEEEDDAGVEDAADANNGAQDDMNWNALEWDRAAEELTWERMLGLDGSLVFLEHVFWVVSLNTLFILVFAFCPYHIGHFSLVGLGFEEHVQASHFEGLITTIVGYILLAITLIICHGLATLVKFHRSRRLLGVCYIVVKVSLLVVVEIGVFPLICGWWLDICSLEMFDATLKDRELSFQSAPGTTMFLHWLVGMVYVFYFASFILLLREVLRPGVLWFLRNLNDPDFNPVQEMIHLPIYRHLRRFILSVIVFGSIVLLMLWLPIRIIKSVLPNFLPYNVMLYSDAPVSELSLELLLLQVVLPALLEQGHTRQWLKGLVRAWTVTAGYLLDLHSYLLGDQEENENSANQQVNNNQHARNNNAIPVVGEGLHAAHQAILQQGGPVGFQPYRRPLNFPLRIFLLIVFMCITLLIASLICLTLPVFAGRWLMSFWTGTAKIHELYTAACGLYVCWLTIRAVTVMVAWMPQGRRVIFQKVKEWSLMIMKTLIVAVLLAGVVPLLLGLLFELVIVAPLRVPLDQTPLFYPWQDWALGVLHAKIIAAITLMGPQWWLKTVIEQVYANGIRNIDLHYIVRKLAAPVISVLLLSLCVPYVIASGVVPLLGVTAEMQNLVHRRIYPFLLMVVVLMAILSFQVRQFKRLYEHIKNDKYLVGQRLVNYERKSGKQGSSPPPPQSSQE
UniProt P45880, sequence (P45880 whole entry): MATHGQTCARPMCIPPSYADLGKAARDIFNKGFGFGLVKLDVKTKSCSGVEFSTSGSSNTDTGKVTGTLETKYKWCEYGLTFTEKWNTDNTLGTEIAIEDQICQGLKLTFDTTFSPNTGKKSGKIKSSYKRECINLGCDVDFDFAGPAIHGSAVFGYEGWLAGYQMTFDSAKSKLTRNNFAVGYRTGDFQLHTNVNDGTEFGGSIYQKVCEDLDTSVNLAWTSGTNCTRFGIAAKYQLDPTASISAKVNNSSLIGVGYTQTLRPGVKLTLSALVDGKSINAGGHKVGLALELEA
UniProt Q08722, sequence (Q08722 whole entry): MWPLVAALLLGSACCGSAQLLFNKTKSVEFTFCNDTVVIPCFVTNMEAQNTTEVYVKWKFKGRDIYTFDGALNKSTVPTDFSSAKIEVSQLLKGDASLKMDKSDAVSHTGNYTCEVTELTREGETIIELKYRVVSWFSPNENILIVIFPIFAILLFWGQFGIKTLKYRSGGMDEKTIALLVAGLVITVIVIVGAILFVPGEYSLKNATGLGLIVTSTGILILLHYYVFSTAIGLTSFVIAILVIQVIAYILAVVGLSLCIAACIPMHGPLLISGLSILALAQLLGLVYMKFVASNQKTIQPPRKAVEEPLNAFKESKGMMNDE
UniProt O75971, sequence (O75971 whole entry): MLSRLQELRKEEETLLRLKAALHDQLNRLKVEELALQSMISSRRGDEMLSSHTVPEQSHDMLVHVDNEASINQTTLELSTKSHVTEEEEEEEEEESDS
UniProt Q9NVH1, sequence (Q9NVH1 whole entry): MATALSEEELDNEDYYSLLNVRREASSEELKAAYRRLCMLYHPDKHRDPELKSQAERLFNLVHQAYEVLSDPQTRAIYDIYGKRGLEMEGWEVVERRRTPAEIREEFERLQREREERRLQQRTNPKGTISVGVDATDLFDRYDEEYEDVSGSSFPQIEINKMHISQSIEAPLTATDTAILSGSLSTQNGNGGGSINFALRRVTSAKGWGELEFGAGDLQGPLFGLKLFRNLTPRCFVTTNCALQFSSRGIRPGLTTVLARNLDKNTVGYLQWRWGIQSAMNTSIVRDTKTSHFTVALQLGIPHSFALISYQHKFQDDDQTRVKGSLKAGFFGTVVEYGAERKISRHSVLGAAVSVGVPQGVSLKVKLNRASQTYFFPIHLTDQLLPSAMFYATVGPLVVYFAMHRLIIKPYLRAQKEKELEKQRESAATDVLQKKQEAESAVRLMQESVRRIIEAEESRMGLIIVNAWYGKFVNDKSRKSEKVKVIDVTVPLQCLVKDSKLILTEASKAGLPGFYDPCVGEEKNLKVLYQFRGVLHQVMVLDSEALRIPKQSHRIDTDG
UniProt Q96K58, sequence (Q96K58 whole entry): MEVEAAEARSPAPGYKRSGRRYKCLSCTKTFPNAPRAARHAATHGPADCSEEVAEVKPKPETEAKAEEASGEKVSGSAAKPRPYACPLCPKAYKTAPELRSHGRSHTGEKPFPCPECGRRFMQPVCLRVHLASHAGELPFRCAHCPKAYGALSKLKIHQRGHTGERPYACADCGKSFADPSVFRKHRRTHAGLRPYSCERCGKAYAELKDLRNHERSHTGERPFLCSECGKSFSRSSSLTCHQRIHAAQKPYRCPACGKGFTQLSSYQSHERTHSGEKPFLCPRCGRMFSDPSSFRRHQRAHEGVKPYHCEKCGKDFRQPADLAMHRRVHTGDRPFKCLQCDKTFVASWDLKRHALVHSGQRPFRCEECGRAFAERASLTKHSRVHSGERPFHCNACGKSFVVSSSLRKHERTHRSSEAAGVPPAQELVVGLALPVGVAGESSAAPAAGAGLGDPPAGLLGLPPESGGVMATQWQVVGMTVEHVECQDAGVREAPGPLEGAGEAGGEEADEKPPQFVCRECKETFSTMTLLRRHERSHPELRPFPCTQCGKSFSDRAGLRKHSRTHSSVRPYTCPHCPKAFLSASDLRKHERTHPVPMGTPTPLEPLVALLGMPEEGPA
UniProt P78537, sequence (P78537 whole entry): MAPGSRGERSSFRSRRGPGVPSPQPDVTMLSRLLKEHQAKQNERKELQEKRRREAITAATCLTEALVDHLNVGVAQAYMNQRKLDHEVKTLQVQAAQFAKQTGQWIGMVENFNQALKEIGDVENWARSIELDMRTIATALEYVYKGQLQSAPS
UniProt O95563, sequence (O95563 whole entry): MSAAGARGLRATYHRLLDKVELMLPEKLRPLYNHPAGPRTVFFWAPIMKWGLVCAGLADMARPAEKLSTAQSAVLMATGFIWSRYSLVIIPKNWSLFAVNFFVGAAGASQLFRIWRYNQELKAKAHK

Target	thermal stability z-score [1, 3]	thermal stability z-score ([1]; arsenate co-treatment: none)	thermal stability z-score [2]
LIMA1 (UniProt Q9UHB6)	-0.552	-0.44	-1
DBI (UniProt P07108)	1.09	0.274	-0.228
TRIP12 (UniProt Q14669)	-0.227	-0.162	0.157
MRAS (UniProt O14807)	0.488	-0.67	0.0682
FKBP1A (UniProt P62942)	0.374	0.262	-1.96
HNRNPUL1 (UniProt Q9BUJ2)	0.162	0.44	0.283
TUBG1 (UniProt P23258)	0.135	-0.106	0.415
AK1 (UniProt P00568)	-0.242	0.28	-0.267
ZNF668 (UniProt Q96K58)	0.0589	-0.155	-0.073
PLAA (UniProt Q9Y263)	0.0745	-0.41	-0.0864
SHROOM1 (UniProt Q2M3G4)	-0.159	-0.157	0.508
KIAA1522 (UniProt Q9P206)	-0.388	-0.0277	0.286
OTUD7B (UniProt Q6GQQ9)	0.194	0.173	0.0572
COL5A2 (UniProt P05997)	-3.8	-3.3	1.12
A0A0C4DFX4|SRCAP	0.121	-0.226	-0.111
ENTHD2 (UniProt Q96N21)	-0.00439	-0.0659	-0.479
STRN4 (UniProt Q9NRL3)	-0.136	0.198	0.937
MPC2 (UniProt O95563)	0.0545	-0.501	1.64
CDK8 (UniProt P49336)	-0.0332	-0.822	-1.66
CD99 (UniProt P14209)	0.901	0.721	0.168
ALDH3B1 (UniProt P43353)	-0.215	0.338	1.26
TERF2 (UniProt Q15554)	-0.0516	-0.042	0.1
NBEAL1 (UniProt Q6ZS30)	0.108	-0.0292	-0.119
WNT5A (UniProt P41221)	-0.888	-0.379	0.214

Target	thermal stability z-score [1, 3]	thermal stability z-score ([1]; arsenate co-treatment: none)	thermal stability z-score [2]
DNAJC11 (UniProt Q9NVH1)	0.0767	-0.132	0.285
SMARCAL1 (UniProt Q9NZC9)	0.0881	-0.0213	-0.0552
NR3C1 (UniProt P04150)	-0.273	-0.664	-0.462
MFN2 (UniProt O95140)	-0.0814	-0.338	0.252
NELFE (UniProt P18615)	0.0818	0.467	0.293
NNT (UniProt Q13423)	0.176	0.166	0.0461
GCDH (UniProt Q92947)	0.711	0.198	-0.202
WDR47 (UniProt O94967)	0.51	0.317	-0.0616
MRPL27 (UniProt Q9P0M9)	-0.0242	0.00566	-0.0764
TULP3 (UniProt O75386)	-0.00846	0.00888	-0.00993
CASP8 (UniProt Q14790)	-2.33	-0.106	-0.648
GRIPAP1 (UniProt Q4V328)	0.163	0.254	1.53
FOLR1 (UniProt P15328)	0.588	0.376	0.366
CD47 (UniProt Q08722)	2.42	1.31	0.869
CCDC85C (UniProt A6NKD9)	0.0231	0.186	-0.0463
BLOC1S1 (UniProt P78537)	-0.0484	0.202	-0.255
VDAC2 (UniProt P45880)	0.262	0.307	1.58
AHCYL2 (UniProt Q96HN2)	0.295	0.547	-1.74
MMGT1 (UniProt Q8N4V1)	0.584	0.397	0.966
MAP1LC3B2|MAP1LC3B	0.0751	0.888	0.485
COQ6 (UniProt Q9Y2Z9)	1.2	-0.131	-2.7
FAM107B (UniProt Q9H098)	-0.0721	0.629	0.327
PABPC4 (UniProt Q13310)	0.322	0.911	-0.478
C19ORF52 (UniProt Q9BSF4)	0.441	0.873	0.873

Target	thermal stability z-score [1, 3]	thermal stability z-score ([1]; arsenate co-treatment: none)	thermal stability z-score [2]
EIF1AX (UniProt P47813)	-0.268	0.0406	0.464
REXO4 (UniProt Q9GZR2)	-0.103	-0.118	-0.149
ALKBH1 (UniProt Q13686)	0.0966	0.171	0.295
TMX1 (UniProt Q9H3N1)	0.948	1.34	-0.418
EXOSC5 (UniProt Q9NQT4)	1.79	1.03	-0.564
USP3 (UniProt Q9Y6I4)	0.0204	0.0221	-2.27
TK2 (UniProt O00142)	0.341	0.589	-0.137
RPS2 (UniProt P15880)	0.307	0.259	-0.532
LRR1 (UniProt Q96L50)	0.148	0.192	-0.256
OTUD5 (UniProt Q96G74)	-0.721	0.294	1.72
SNAPC5 (UniProt O75971)	-0.0463	0.216	0.158
INPP4A (UniProt Q96PE3)	0.395	0.319	0.221
RAF1 (UniProt P04049)	-0.142	0.126	-0.0609
PGAM1 (UniProt P18669)	-0.0445	0.244	-0.0878
PLA2G4A (UniProt P47712)	-0.308	-0.439	-0.294
IL27RA (UniProt Q6UWB1)	-0.395	0.44	1.33
PDSS2 (UniProt Q86YH6)	0.66	0.484	-0.169
DDB1 (UniProt Q16531)	-0.479	-0.519	-0.468
ACAA1 (UniProt P09110)	-0.181	0.335	0.919
ACSS2 (UniProt Q9NR19)	0.198	0.512	-0.517
GTSE1 (UniProt Q9NYZ3)	-0.0607	0.0853	-0.213
DDX42 (UniProt Q86XP3)	0.815	0.837	0.47
MARCH6 (UniProt O60337)	-0.245	-0.44	-0.855
